Measured values: patent US20020065315A1, “Ion channel modulating agents” (priority 1999, published 2002)

Assays:
T cells = experiment: Inhibition of T cell proliferation (antigen PPD induced, [3H]thymidine incorporation); assay type: cell-based; conditions: PPD (10 μg/ml), 144 hours culture, mean of triplicate cultures
Procedure: The chemical compounds used according to the invention prevent immunological proliferation by selective inhibition of the Ca^2+-activated K-channels in T- and B-lymphocytes. This effect may be verified using various proliferation assays. In this experiment the proliferative assay described by Ødum et al [Ødum N, Kanner S B, Ledbetter J A, & Svejgaard A; J. Immunol. 1993 150 (12) 5289-5298] was used.
Assays were performed in culture medium (RPMI 1640; available from Gibco, Grand Island, N.Y.) supplemented with 10% pooled human serum, 2 mM L-glutamine, 100 μg/ml penicillin, and 100 μg/ml streptomycin (available from Novo Nordisk, Copenhagen, Denmark) in 96-well round bottom tissue culture plates (available from Nunc, Roskilde, Denmark) with a final volume of 200 μl.
T cells were pre-incubated for three hours with the test compounds before addition of antigen (PPD, purified protein derivative, 10 μg/ml). T cells were cultured at 5×10^4 cells/well for 144 hours. Twelve hours before harvest, [^3H]thymidine ([…]) was added. The cells were harvested onto glass fibre filters, and the [^3H]thymidine incorporation was measured in a scintillation counter. The results were expressed as mean counts per minute (cpm) from triplicate cultures.

Q: For `Cc1ccc(C)n1-c1c(-c2ccccc2)cc(Cl)cc1-c1ccccc1`, which melting point is on record?
A: 178 to 180 °C

Q: Which results are given for `CC(C)c1cccc(C(C)C)c1-c1cccnc1` [Compound 1B, 3-(2,6-diisopropylphenyl)-pyridine]?
A: T Cell Proliferation (T cells; test compound 2.5 μM): 19.5 cpm × 10^−3; T Cell Proliferation (T cells; test compound 10 μM): 19 cpm × 10^−3; T Cell Proliferation (T cells; test compound 25 μM): 14 cpm × 10^−3
